# Reference: US6506738B1, “Benzimidazolone antiviral agents” (Bristol-Myers Squibb Company, priority 2000, dated 2003)
# Experiments:
# [1] = tested on: respiratory syncytial virus Long strain; experiment: Antiviral activity against respiratory syncytial virus in HEp-2 cells (MTT cell protection); assay type: cell-based
# Protocol: The antiviral activity of these compounds against respiratory syncytial virus was determined in HEp-2 (ATCC CCL 23) cells that were seeded in 96 well microtiter plates at 1.5×10^4 cells/100 μL/well in DMEM (Dulbecco's Modified Eagle's Medium) supplemented with penicillin, streptomycin, glutamine, and 10% fetal bovine serum. The cells were incubated overnight at 37° C., the culture medium was removed, and cells were infected (100 μL volume in medium containing 2% fetal bovine serum) with respiratory syncytial virus Long strain at 5000 plaque forming units/mL. The compounds, 100 μL at appropriate dilution, were added to the cells 1 hour post infection. After incubation for 4 days at 37° C., the plates were stained with MTT solution (3-[4,5-dimethlythiazol-2-yl]-2,5-diphenyltetrazolium bromide) and incubated for 4 hours at 37° C. The media was aspirated from the cells and 100 μL/well of acidified isopropanol (per liter: 900 mL isopropanol, 100 mL Triton×100, and 4 mL conc. HCl) was added. Plates were incubated for 15 minutes at room temperature with shaking, and an optical density (OD 540) reading at 540 nanometer (nm) was obtained. The optical density reading is proportional to the number of viable cells. The increase in the number of viable cells reflects the protective, antiviral activity of the compound. […]
melting point [°C],"EC50 ([1]; human respiratory syncytial virus, HEp-2 cells infected with RSV Long strain, compound added 1 hour post infection, 4 days, read-out: EC50 (concentration that produces 50% cell protection)) [nM]",SMILES,"cell protection ([1]; at 2.5 μg/mL (corresponding to 10.2 μM), HEp-2 cells, RSV Long strain) [%]"
> 200,–,O=c1[nH]c2ccccc2n1Cc1nc2ccccc2n1CCn1cnnn1 [Compound 184],–
–,3000,NC(=O)c1ncn([C@@H]2O[C@H](CO)[C@@H](O)[C@H]2O)n1 [Ribavirin],100
